Source: the supplement of paper PMC11061612

Experiments:
FU97 (Gastric Carcinoma) = experiment: combination Emax (second highest fraction inhibited in the dose matrix, 72 h); higher = more inhibition; extreme values may be limits of the assay
How it was run: (§1)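 Bliss excess equals the observed combination effect minus the expected value EA + EB − EA·EB, where EA and EB are the effects of each agent alone. Combination Emax is the second-highest inhibition within the matrix. Inhibition was scaled from CellTiter-Glo 2.0 luminescence, with 0 set by vehicle wells and 1 by blank wells, after 72 hours of two-drug dosing of cells plated in 1536-well plates.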

NCI-H2591 (Mesothelioma) = experiment: as above
How it was run: as §1

[1] = test system: A549 (Lung Adenocarcinoma); experiment: as above
How it was run: as §1

[2] = test system: KARPAS-422 (B-Cell Non-Hodgkin's Lymphoma); experiment: as above
How it was run: as §1

[3] = test system: COLO-824 (Breast Carcinoma); experiment: as above
How it was run: as §1

[4] = test system: ONS-76 (Other Solid Carcinomas); experiment: as above
How it was run: as §1

[5] = test system: CCK-81 (Colorectal Carcinoma); experiment: as above
How it was run: as §1

[6] = test system: JSC-1 (B-Cell Non-Hodgkin's Lymphoma); experiment: as above
How it was run: as §1

[7] = test system: NCI-H1650 (Lung Adenocarcinoma); experiment: as above
How it was run: as §1

8-MG-BA (Glioblastoma) = experiment: as above
How it was run: as §1

[8] = test system: TT2609-C02 (Thyroid Gland Carcinoma); experiment: as above
How it was run: as §1

GI-ME-N (Neuroblastoma) = experiment: as above
How it was run: as §1

[9] = test system: VCaP (Prostate Carcinoma); experiment: as above
How it was run: as §1

[10] = test system: NCI-H1581 (Non-Small Cell Lung Carcinoma); experiment: as above
How it was run: as §1

[11] = test system: NCI-H2066 (Squamous Cell Lung Carcinoma); experiment: as above
How it was run: as §1

[12] = test system: HCC1954 (Breast Carcinoma); experiment: as above
How it was run: as §1

[13] = test system: A3-KAW (B-Cell Non-Hodgkin's Lymphoma); experiment: as above
How it was run: as §1

[14] = test system: TT (Thyroid Gland Carcinoma); experiment: Bliss excess, mean over the matrix (fraction); higher = more synergy
How it was run: as §1

[15] = test system: COLO-320-HSR (Colorectal Carcinoma); experiment: as above
How it was run: as §1

[16] = test system: OS-RC-2 (Kidney Carcinoma); experiment: as above
How it was run: as §1

SMILES	combination Emax (FU97 (Gastric Carcinoma))	combination Emax (NCI-H2591 (Mesothelioma))	combination Emax [1]	combination Emax [2]	combination Emax [3]	combination Emax [4]	combination Emax [5]	combination Emax [6]	combination Emax [7]	combination Emax (8-MG-BA (Glioblastoma))	combination Emax [8]	combination Emax (GI-ME-N (Neuroblastoma))	combination Emax [9]	combination Emax [10]	combination Emax [11]	combination Emax [12]	combination Emax [13]	Bliss excess [14]	Bliss excess [15]	Bliss excess [16]
CC1(C)CCC(CN2CCN(c3ccc(C(=O)NS(=O)(=O)c4ccc(NCC5CCOCC5)c([N+](=O)[O-])c4)c(Oc4cnc5[nH]ccc5c4)c3)CC2)=C(c2ccc(Cl)cc2)C1 [Venetoclax] + C[C@@H]1COCCN1C2=NC(=NC(=C2)C3(CC3)[S@](=N)(=O)C)C4=C5C=CNC5=NC=C4 [AZD6738] (first compound max 1 µM, 7x7, partner max 10 µM)	0.339	0.329	0.716	0.956	0.944	0.865	0.846	0.882	0.402	0.792	0.317	0.459	0.428	0.451	0.384	0.55	1	-0.0387	-0.0076	-0.0804
CC1(C)CCC(CN2CCN(c3ccc(C(=O)NS(=O)(=O)c4ccc(NCC5CCOCC5)c([N+](=O)[O-])c4)c(Oc4cnc5[nH]ccc5c4)c3)CC2)=C(c2ccc(Cl)cc2)C1 [Venetoclax] + C[C@@H](Nc1cc(F)cc(F)c1)c1cc(C(=O)N(C)C)cc2c(=O)cc(N3CCOCC3)oc12 [AZD8186] (first compound max 1 µM, 7x7, partner max 3 µM)	0.329	0.118	0.471	0.98	0.921	0.746	0.0792	0.0196	0.255	0.133	0.162	0.165	0.188	0.182	0.215	0.0913	0.302	-0.0467	-0.0052	-0.0629
CC1(C)CCC(CN2CCN(c3ccc(C(=O)NS(=O)(=O)c4ccc(NCC5CCOCC5)c([N+](=O)[O-])c4)c(Oc4cnc5[nH]ccc5c4)c3)CC2)=C(c2ccc(Cl)cc2)C1 [Venetoclax] + Cc1cc2ncnn2cc1Nc1ncc2c(n1)n(C1CCOCC1)c(=O)n2C [AZD7648] (first compound max 1 µM, 7x7, partner max 10 µM)	0.494	0.315	0.436	0.897	0.766	0.764	0.173	0.205	0.108	0.133	0.341	0.186	0.293	0.222	0.273	0.336	0.417	-0.0161	-0.0098	-0.0584
CC1(C)CCC(CN2CCN(c3ccc(C(=O)NS(=O)(=O)c4ccc(NCC5CCOCC5)c([N+](=O)[O-])c4)c(Oc4cnc5[nH]ccc5c4)c3)CC2)=C(c2ccc(Cl)cc2)C1 [Venetoclax] + Cn1cnc2c(F)c(Nc3ccc(Br)cc3Cl)c(C(=O)NOCCO)cc21 [Selumetinib] (first compound max 1 µM, 7x7, partner max 3 µM)	0.314	0.171	0.611	0.793	0.829	0.536	0.369	0.271	0.0531	0.124	0.55	0.24	0.143	0.32	0.191	0.186	0.216	-0.0799	-0.0062	-0.101
